The record followed here is US10562912B2 (C&C Research Laboratories, priority 2013, dated 2020).

Holding throughout (format): cell-based
One assay relates to LNCaP. In words: Cell growth inhibition assay, prostate cancer cell line LNCaP (medium with 10 ng/mL IL-6). The settings on record: Homo sapiens, medium supplemented with 10 ng/mL of IL-6, 10,000 cells/well.
The target in another assay is T1, STAT3 (Homo sapiens, UniProt P40763).
T1 construct: plasmid pSTAT3-TA-luc), which contains a stably operating STAT3 promoter; endogenous in cells
T1 sequence (P40763 whole entry): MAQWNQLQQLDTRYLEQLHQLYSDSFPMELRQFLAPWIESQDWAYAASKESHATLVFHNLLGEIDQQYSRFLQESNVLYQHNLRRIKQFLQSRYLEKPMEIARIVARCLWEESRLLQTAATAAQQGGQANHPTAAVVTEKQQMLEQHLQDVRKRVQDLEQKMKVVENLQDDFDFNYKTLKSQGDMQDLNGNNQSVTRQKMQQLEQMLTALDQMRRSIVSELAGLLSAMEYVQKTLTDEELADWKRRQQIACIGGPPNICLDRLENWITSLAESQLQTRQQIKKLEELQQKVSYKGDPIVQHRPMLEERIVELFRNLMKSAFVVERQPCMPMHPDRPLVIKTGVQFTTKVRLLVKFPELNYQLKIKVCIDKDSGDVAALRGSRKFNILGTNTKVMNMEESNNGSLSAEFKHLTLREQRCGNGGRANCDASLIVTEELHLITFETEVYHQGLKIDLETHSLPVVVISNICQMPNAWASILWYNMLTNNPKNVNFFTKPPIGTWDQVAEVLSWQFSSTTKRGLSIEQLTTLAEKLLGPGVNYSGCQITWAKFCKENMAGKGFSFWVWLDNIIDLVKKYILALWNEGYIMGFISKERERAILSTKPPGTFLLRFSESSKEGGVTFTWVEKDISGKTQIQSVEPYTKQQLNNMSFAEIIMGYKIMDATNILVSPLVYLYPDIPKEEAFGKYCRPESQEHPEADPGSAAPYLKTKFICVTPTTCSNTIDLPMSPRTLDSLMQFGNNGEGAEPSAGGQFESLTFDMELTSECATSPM
The assay is described as follows: STAT3 reporter gene assay (luciferase), LNCaP stable cell line (pSTAT3-TA-luc), IL-6 stimulation. The procedure, abridged:
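Cytotoxicity was run on a duplicate plate with CellTiter-Glo, while the other plate gave luciferase read-outs from lysed LNCaP pSTAT3-TA-luc reporter cells. Cells were treated with graded compound concentrations plus IL-6 (10 ng/mL final) for 24–48 h in 3% DCC-FBS medium. Unstimulated and stimulated wells served as negative and positive controls.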
In general terms: Reporter assays use an easily measured gene product as a stand-in for the process of interest.

For a further assay, the system named is HEL92.1.7. The assay is described as follows: Cell growth inhibition assay, blood cancer cell line HEL92.1.7. The settings on record: Homo sapiens, HEL 92.1.7, HEL92.1.7 blood cancer cell line. The procedure, abridged: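 Cells were seeded at 3,000/well (HCT116, DU-145) or 5,000/well (SW626 and the others) and exposed to serial compound dilutions for 72 to 96 h at 37 °C under 5% CO2. Viability was read as CellTiter-Glo luminescence against 0.1% DMSO and cell-free wells.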

In another assay the test system is DU-145. The assay is described as follows: Cell growth inhibition assay, prostate cancer cell line DU-145. The settings on record: Homo sapiens, DU-145 prostate cancer cell line. The procedure, abridged:
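Readout was CellTiter-Glo luminescence after 72–96 h of compound exposure at 37 °C, 5% CO2. Plating density was 3,000 cells/well for DU-145 and HCT116 and 5,000 cells/well for SW626. Controls were 0.1% DMSO wells and medium-only wells.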

For another assay, the system named is MDA-MB-231. The assay is described as follows: Cell growth inhibition assay, breast cancer cell line MDA-MB-231. The conditions noted are these: Homo sapiens; MDA-MB-231 breast cancer cell line, 5,000 cells/well.

Molecules are shown by their SMILES.

Consider `CC(C)(c1cc(Br)cc(NC(=O)c2cc3ccc(NS(C)(=O)=O)cc3[nH]2)c1)c1ccc(F)cc1F` [Example 15, N-(3-bromo-5-(2-(2,4-difluorophenyl)propan-2-yl)phenyl)-6-(methylsulfonamido)-1H-indole-2-carboxamide], for which the IC50 in the assay on LNCaP is 0.29 µM; on STAT3, 0.12 µM; with HEL92.1.7, 1.8 µM; in the assay with DU-145, 0.25 µM; with MDA-MB-231 it was 0.068 µM.
For `CC(C)(c1cc(Br)cc(NC(=O)c2cc3cc(NS(C)(=O)=O)ccc3s2)c1)c1ccc(F)cc1F` [Example 35, N-(3-bromo-5-(2-(2,4-difluorophenyl)propan-2-yl)phenyl)-5-(methylsulfonamido)benzo[b]thiophene-2-carboxamide], in that order: 0.067 µM, 0.076 µM, 0.28 µM, 0.06 µM and 0.027 µM.
On to `CS(=O)(=O)Nc1ccc2cc(C(=O)Nc3cccc(-c4ccc(F)cc4F)c3)[nH]c2c1` [Example 270, N-(2′,4′-difluoro-[1,1′-biphenyl]-3-yl)-6-(methylsulfonamido)-1H-indole-2-carboxamide], for which the IC50 in the assay on LNCaP turned out to be 1.01 µM; against STAT3, 0.38 µM; with HEL92.1.7, 1.7 µM; in the assay on MDA-MB-231, 0.7 µM.
`CS(=O)(=O)Nc1ccc2cc(C(=O)Nc3cc(Br)cc(-c4ccc(F)cc4F)c3)[nH]c2c1` [Example 302, N-(5-bromo-2′,4′-difluoro-[1,1′-biphenyl]-3-yl)-6-(methylsulfonamido)-1H-indole-2-carboxamide]: the IC50 was determined as 2.5 µM in the assay on LNCaP; 0.4 µM against STAT3; 2.7 µM in the assay on HEL92.1.7; 0.57 µM in the assay with DU-145; 0.11 µM in the assay on MDA-MB-231.
For `CS(=O)(=O)Nc1ccc2sc(C(=O)Nc3cc(Br)cc(-c4ccc(F)cc4F)c3)cc2c1` [Example 305, N-(5-bromo-2′,4′-difluoro-[1,1′-biphenyl]-3-yl)-5-(methylsulfonamido)benzo[b]thiophene-2-carboxamide], in that order: 0.072 µM, 0.067 µM, 0.24 µM, 0.03 µM and 0.001 µM.
Turning to `CN(c1cc2cc(C(=O)Nc3cc(Cl)cc(-c4ccc(F)cc4F)c3)sc2cc1F)S(C)(=O)=O` [Example 329, N-(5-chloro-2′,4′-difluoro-[1,1′-biphenyl]-3-yl)-6-fluoro-5-(N-methylmethylsulfonamido)benzo[b]thiophene-2-carboxamide], the IC50 was determined as 0.008 µM with LNCaP, 0.01 µM against STAT3, 0.009 µM in the assay with HEL92.1.7 and 0.004 µM with DU-145.
Taken in the same sequence, the figures for `O=C(Nc1cc(Cl)cc(-c2ccc(F)cc2F)c1)c1cc2cc(NS(=O)(=O)C3CCOC3)c(F)cc2s1` (stereo not shown) [Example 330, N-(5-chloro-2′,4′-difluoro-[1,1′-biphenyl]-3-yl)-6-fluoro-5-((tetrahydrofuran)-3-sulfonamido)benzo[b]thiophene-2-carboxamide] were 0.011 µM, 0.029 µM, 0.057 µM and 0.005 µM.
For the compound `CN(c1ccc2cc(C(=O)Nc3cccc(-c4ccc(F)cc4F)c3)[nH]c2c1)S(C)(=O)=O` [Example 344, N-(2′,4′-difluoro-[1,1′-biphenyl]-3-yl)-6-(N-methylmethylsulfonamido)-1H-indole-2-carboxamide], the IC50 was found to be 0.014 µM in the assay with LNCaP, 0.15 µM against STAT3, 0.49 µM with HEL92.1.7 and 0.1 µM with MDA-MB-231.
On to `CS(=O)(=O)Nc1ccc2sc(C(=O)Nc3cc(Br)cc(S(=O)(=O)N4CCc5ccc(F)cc5C4)c3)cc2c1` [Example 418, N-(3-bromo-5-((7-fluoro-3,4-dihydroisoquinolin-2(1H)-yl)sulfonyl)phenyl)-5-(methylsulfonamido)benzo[b]thiophene-2-carboxamide], for which the IC50 was found to be 1.6 µM in the assay with LNCaP, 0.84 µM against STAT3, 2.2 µM with HEL92.1.7 and 0.98 µM with DU-145.
Taken in the same sequence, the figures for `CS(=O)(=O)Nc1ccc2sc(C(=O)Nc3cc(Br)cc(S(=O)(=O)N4CCc5c(F)cc(F)cc5C4)c3)cc2c1` [Example 419, N-(3-bromo-5-((5,7-difluoro-3,4-dihydroisoquinolin-2(1H)-yl)sulfonyl)phenyl)-5-(methylsulfonamido)benzo[b]thiophene-2-carboxamide] were 1 µM, 0.67 µM, 1.8 µM and 0.65 µM.
Taken in the same sequence, the figures for `CS(=O)(=O)Nc1ccc2sc(C(=O)Nc3cc(Br)cc(S(=O)(=O)N4CCC(F)(F)CC4)c3)cc2c1` [Example 420, N-(3-bromo-5-((4,4-difluoropiperidin-1-yl)sulfonyl)phenyl)-5-(methylsulfonamido)benzo[b]thiophene-2-carboxamide] were 1.7 µM, 0.82 µM, 2.4 µM and 0.95 µM.
As for `CC(C)Oc1cc(OC(F)(F)F)cc(C2(c3cc(Cl)cc(NC(=O)c4cc5cc(N(C)S(C)(=O)=O)c(F)cc5s4)c3)CC2)c1` [Example 430, N-(3-chloro-5-(1-(3-isopropoxy-5-(trifluoromethoxy)phenyl)cyclopropyl)phenyl)-6-fluoro-5-(N-methylmethylsulfonamido)benzo[b]thiophene-2-carboxamide], the IC50 in the assay with LNCaP turned out to be 0.006 µM; against STAT3, 0.012 µM; in the assay on HEL92.1.7, 0.014 µM; in the assay on DU-145, 0.006 µM.
As to `CC(C)Oc1cc(OC(F)(F)F)cc(C2(c3cc(Cl)cc(NC(=O)c4cc5cc(NS(C)(=O)=O)ccc5s4)c3)CC2)c1` [Example 431, N-(3-chloro-5-(1-(3-isopropoxy-5-(trifluoromethoxy)phenyl)cyclopropyl)phenyl)-5-(methylsulfonamido)benzo[b]thiophene-2-carboxamide], the IC50 with LNCaP stood at 0.034 µM; on STAT3, 0.053 µM; in the assay with HEL92.1.7, 0.007 µM; in the assay on DU-145, 0.038 µM.
For `CS(=O)(=O)Nc1ccc2sc(C(=O)Nc3cc(Cl)cc(Nc4ccc(F)cc4F)c3)cc2c1` [Example 438, N-(3-chloro-5-((2,4-difluorophenyl)amino)phenyl)-5-(methylsulfonamido)benzo[b]thiophene-2-carboxamide], in that order: 0.42 µM, 0.2 µM, 0.48 µM and 0.16 µM.
Turning to `CN(c1cc(Cl)cc(NC(=O)c2cc3cc(NS(C)(=O)=O)ccc3s2)c1)c1ccc(F)cc1F` [Example 439, N-(3-chloro-5-((2,4-difluorophenyl)(methyl)amino)phenyl)-5-(methylsulfonamido)benzo[b]thiophene-2-carboxamide], the IC50 turned out to be 0.15 µM with LNCaP, 0.053 µM against STAT3, 0.64 µM in the assay with HEL92.1.7 and 0.089 µM in the assay on DU-145.
Taken in the same sequence, the figures for `CN(c1ccc(Cl)cc1)c1cc(Cl)cc(NC(=O)c2cc3cc(NS(C)(=O)=O)ccc3s2)c1` [Example 440, N-(3-chloro-5-((4-chlorophenyl)(methyl)amino)phenyl)-5-(methylsulfonamido)benzo[b]thiophene-2-carboxamide] were 0.021 µM, 0.036 µM, 0.085 µM and 0.012 µM.
Taken in the same sequence, the figures for `CS(=O)(=O)Nc1ccc2sc(C(=O)Nc3cc(Cl)cc(Oc4ccc(F)cc4F)c3)cc2c1` [Example 444, N-(3-chloro-5-(2,4-difluorophenoxy)phenyl)-5-(methylsulfonamido)benzo[b]thiophene-2-carboxamide] were 0.24 µM, 0.083 µM, 0.65 µM and 0.13 µM.
For `CS(=O)(=O)Nc1ccc2sc(C(=O)Nc3cc(Cl)cc(Oc4ccc(Cl)cc4)c3)cc2c1` [Example 445, N-(3-chloro-5-(4-chlorophenoxy)phenyl)-5-(methylsulfonamido)benzo[b]thiophene-2-carboxamide], in that order: 0.074 µM, 0.066 µM, 0.15 µM and 0.055 µM.

In general, IC50 refers to the concentration at which inhibition is half-maximal. High values mean weaker potency in that assay, low ones greater potency in that assay.
